# “Also recorded” adds a separate entry of the source.
# How the values were obtained:
# HIV-1 NL4-3 = settings: cited from earlier work
# HIV-1 CA = HIV-1 CA (Human immunodeficiency virus type 1 group M subtype B, UniProt P12493); settings: cited from earlier work
# Gag = Gag (Human immunodeficiency virus type 1 group M subtype B, UniProt P12493); settings: cited from earlier work
# HBV replication = assay: Southern blot analysis of encapsidated HBV DNA in transfected Huh7 cells; type: cell-based, Hepatitis B virus (HBV); settings: WT normalized to 100%, SD in parenthesis, * values at limit of detection
# From the text: (§1) All HBV plasmids used in cell culture experiments were derived from subtype ayw (Genbank accession no. V01460). These plasmids express pgRNA under the control of the cytomegalovirus (CMV) immediate early promoter. […] Plasmids C^WT or C^V124W express core protein but not P or envelope proteins and lack a functional encapsidation signal, GFP protein was expressed from a separate plasmid (provided by Bill Sugden, UW-Madison). Details of construction and sequence of any plasmid will be provided upon request.
# The human hepatoma cell line Huh7 was used to study HBV replication. Cells were grown in 60 mm plates at 37° C. in 5% CO2, in DMEM/F12 medium supplemented with 5% FBS (Invitrogen, Grand Island, N.Y.). Cells were approximately 75% confluent or greater at time of transfection. DNA transfections were performed using calcium phosphate precipitation. For experiments using WT^P+C+ and V124W^P+C+, 5 μg of total plasmid mass was transfected. Each transfection experiments were repeated three times independently. For V124W titration experiment, 2 μg WT^P+C+ and varied C^V124W (0 to 8 μg) were used. A filler plasmid pCMV-Sport6 was used to keep the total plasmid mass at 10 μg. 0.125 μg of the GFP expression plasmid was used in every transfection. Typically, medium containing the calcium phosphate precipitate was removed after 16 hours, fresh medium added, and the cultures were grown for an additional 96 hours.
# Nucleic acid from cytoplasmic capsids was isolated as described previously. Briefly, cells were lysed in a solution containing 50 mM Tris, 1 mM EDTA, 0.2% NP40, pH 8.0. Nuclei were pelleted via centrifugation and supernatant was collected. A fraction of this lysate was used for detection of core protein and GFP. The remainder of the cytoplasmic lysate was treated with 45 units of micrococcal nuclease (Worthington Biochemicals, Lakewood, N.J.) in the presence of 2 mM CaCl2 to digest plasmid DNA and unencapsidated pgRNA, followed by treatment with 0.4% SDS and 0.4 mg/ml Pronase® (Roche, Nutley, N.J.) to digest nucleocapsids and P protein. Encapsidated nucleic acids were extracted with 1:1 phenokchloroform, precipitated with ethanol and NaCl, and re-suspended in 30 μl of a solution of 10 mM Tris, 0.1 mM EDTA, pH 8.0.
# An aliquot of viral DNA was electrophoresed through a 1.25% agarose gel. DNA was denatured and neutralized in situ in 0.5 N NaOH/1.5 M NaCl and 1 M Tris/1.5 M NaCl, respectively, followed by passive transfer to Hybond-N (GE® Lifesciences, Piscataway, N.J.) in 10×SSC. Viral DNA was detected on the membrane using an equimolar pool of oligonucleotides that detected (−) DNA. […] Levels of DNA were measured using the software ImageQuant® 5.2 (Molecular Dynamics). DNA levels were normalized to GFP levels as determined previously by western blot. […]
# core protein = assay: Western blot analysis of core protein level in transfected Huh7 cells; type: cell-based, Hepatitis B virus (HBV); settings: normalized to GFP, WT = 100%, SD in parenthesis
# From the text: as §1
# The human hepatoma cell line Huh7 was used to study HBV replication. Cells were grown in 60 mm plates at 37° C. in 5% CO2, in DMEM/F12 medium supplemented with 5% FBS (Invitrogen, Grand Island, N.Y.). […]
# A fraction of cytoplasmic lysate was used to run a 15% SDS-PAGE, followed by transfer of proteins to PVDF-FL (Millipore®, Billerica, Mass.) in methanol transfer buffer (details of SDS-PAGE and transfer solutions provided upon request). […] Core protein was detected using a rabbit α-core antibody (Austral Biologicals®, San Ramon, Calif.) at a dilution of 1:500, and a goat α-rabbit IRDye800CW antibody (Li-Cor®) at a dilution of 1:10,000. GFP was detected using a mouse α-GFP antibody (Santa Cruz® Biotechnology, San Cruz, Calif.) at a dilution of 1:500, and a goat α-mouse IRDye680LT antibody (Li-Cor®) at a dilution of 1:10,000. […] Core levels were normalized to GFP levels for quantitation. […]
# HBV capsid assembly [1] = assay: Size exclusion chromatography of equilibrium capsid assembly and calculation of thermodynamic parameters; type: biochemical, Hepatitis B virus (HBV); settings: 100 mM NaCl, 23° C.; for pseudo-critical concentration: 72 h equilibration
# Protocol: (§2) The adyw strain of HBV Cp149-pET11c (Genbank accession no. J02202.1) construct was mutated to Cp149-V124W (GTG to TGG) with the QuikChange mutagenesis kit (Stratagene). […] V124W purification was performed as previously described for HBV Cp149-WT purification. Based on the biochemical studies in this paper, in the re-assembly step, using 50 mM NaCl instead of 500 mM NaCl to induce re-assembly yielded more capsid with slightly more aggressive assembly activity. Protein concentration was determined using an extinction coefficient of 70,025 M^−1 cm^−1 per V124W dimer at 280 nm, calculated by ExPASy Proteomics Server based on the protein sequence and assuming one disulfide bond per dimer WT dimer was purified exactly as previously described. The extinction coefficient of WT dimer is 60,900 M^−1 cm^−1 at 280 nm. Before assembly studies, frozen protein stock was dialyzed into 50 mM HEPES, pH 7.5 for at least 2×2 h at 4° C. The standard assembly buffer was 50 mM HEPES, pH 7.5 at 23° C. with varied NaCl concentrations. Protein stock was treated with 1% to 5% β-mercaptoethanol for 20 min before assembly.
# WT and V124W at varied concentrations (WT, 40 to 80 μM; V124W, 2.5 to 30 μM), were induced to assemble at 100 mM NaCl to equilibration for 72 h or longer at 23° C. […] Capsid and dimer concentrations in assembly reactions were determined by size exclusion chromatography (SEC) through a 21 ml Superose 6 column. ΔGcontact and KD,apparent were calculated as previously described. KD,apparent was the average of the equilibrium dimer concentrations which were nearly constant.
# HBV capsid assembly [2] = molecular target: T1, HBV capsid assembly (Hepatitis B virus genotype D subtype adw, UniProt P03147); assay: Extent of core protein assembly without HAP12 by size exclusion chromatography; type: biochemical
# T1 construct: (Cp149), which is the N-terminal first 149 residues of the core protein; made in house; host or cells: E. coli BL21 (DE3) (printed for V124W; WT 'as previously described')
# T1 sequence (P03147 1-149): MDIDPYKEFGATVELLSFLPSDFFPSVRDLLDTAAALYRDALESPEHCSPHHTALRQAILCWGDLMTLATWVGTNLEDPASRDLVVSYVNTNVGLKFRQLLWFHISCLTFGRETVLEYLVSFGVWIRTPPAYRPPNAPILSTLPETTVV
# Protocol: as §2
# (§3) To test for resistance to HAP molecules, 10 μM protein with varied HAP12 concentrations (2.5 to 60 μM) was induced to assemble at 50 mM NaCl. Before adding 10× NaCl, protein was incubated with HAP12 at 23° C. for 20 min. Each reaction was incubated at 23° C. for 24 h to equilibrate. Under these conditions, 24 h was long enough to allow reactions to reach equilibrium. Capsid, abnormal structures and dimer concentrations were determined by SEC as described above.
# HBV capsid assembly [3] = assay: as above; type: biochemical, Hepatitis B virus (HBV); settings: 10 μM protein, 50 mM NaCl, 23° C., without HAP12
# Protocol: as §2, §3
# HBV capsid assembly [4] = assay: 90° light scattering assembly kinetics of core protein alone; type: biochemical, Hepatitis B virus (HBV); settings: 10 μM protein, 50 mM NaCl, first 800 seconds
# Protocol: Light scattering was monitored at 90° using 400 inn excitation and emission wavelength with a Photon Technology International fluorometer for at least 800 seconds at 23° C. 10 μM protein (WT or V124W) was incubated with or without 20 μM HAP12 for 20 min prior to adding equal volume of 2× NaCl to a final concentration of 50 mM NaCl. Each sample was repeated 3-4 times independently.
# 90° Light scattering is a well-established method to monitor the virus assembly kinetics because of the significant difference between the size of the capsid and the dimer. HBV core protein assembly is induced by increasing the ionic strength in vitro, which is achieved by adding NaCl to the reaction system. Higher ionic strength leads to assembly faster and further due to the stronger association energy between dimers.
# Cp149 dimer interface = molecular target: T2, Cp149 dimer interface (Hepatitis B virus genotype D subtype adw, UniProt P03147); settings: cited from earlier work
# T2 construct: (Cp149), which is the N-terminal first 149 residues of the core protein
# T2 sequence (P03147 1-149): as above
compound,measurement,setting,value
Cc1[nH]c2ccccc2c1CC(=O)N[C@@H](Cc1ccccc1)C(=O)N(C)c1ccccc1 [PF-3450074],antiviral activity against HIV,HIV-1 NL4-3,inhibit HIV replication
same,rate of CA multimerization,HIV-1 CA,significant increase
same,Gag association,Gag,does not inhibit
"WT: wild type HBV core protein; Cp149 is the N-terminal 149-residue assembly domain, used as control",dlDNA,HBV replication,100% (27%)
same,ssDNA,HBV replication,100% (19%)
same,total DNA,HBV replication,100% (19%)
same,rcDNA,HBV replication; three independent transfections,100% (46%)
same,core protein,core protein,100% (39%)
same,ΔGcontact,HBV capsid assembly [1],-2.74 ± 0.04 kcal/mol
same,pseudo-critical concentration,HBV capsid assembly [1],about 43 μM
same,pseudo-critical concentration,HBV capsid assembly [1]; listed as wild type Cp149,43.6 ± 5.1 µM
same,ΔGcontact,HBV capsid assembly [1]; listed as wild type Cp149,-2.74 ± 0.04 kcal/mol
same,Kd,"HBV capsid assembly [1]; read-out: KD, apparent",43.3 ± 4.97 µM
same,capsid formation at 150 mM NaCl,"HBV capsid assembly [2]; 10 μM protein, 150 mM NaCl (data not shown)",did not observe any capsid formation
same,concentration needed to see any assembly,"HBV capsid assembly [2]; under similar conditions (NaCl-induced assembly, FIG. 10)",45 µM
same,extent of assembly (dimers assembled into capsids),HBV capsid assembly [3],no assembly
same,extent of assembly (dimers assembled into capsids),HBV capsid assembly [3]; listed as wild type Cp149,does not assemble at all; also recorded: no assembly
same,assembly kinetics without HAP12 (in words),HBV capsid assembly [4],did not assemble
same,association energy at the dimer interface,"Cp149 dimer interface; 150 mM NaCl 37° C., without HAP",-3.87 kcal/mol
COC(=O)C1=C(C)NC(c2ncc(F)cc2F)=N[C@H]1c1ccc(F)cc1Cl [BAY41-4109],HAP stoichiometry necessary to generate aberrant structures,Cp149 dimer interface; pure BAY41-4109,greater than one HAP per two dimers

# Source: patent US9968650B2, “Modified viral structural protein with antiviral activity” (priority 2011, dated 2018)
